This experiment has as its target HIV protease (Human immunodeficiency virus type 1 group M subtype B, UniProt P04585). The experiment can be described thus: Assay for inhibition of microbial expressed viral protease (peptide substrate cleavage, HPLC readout). It counts as biochemical. The settings on record: protease expressed in Eschericia coli; peptide substrate Val-Ser-Gln-Asn-(betanapthyl)Ala-Pro-Ile-Val 0.5 mg/mL; 50 mM Na acetate, pH 5.5, 30°C, 1 hour; read-out: IC₅₀. On the procedure: Assay for Inhibition of Microbial Expressed Viral Protease
Inhibition studies of the reaction of the protease expressed in Eschericia coli with a peptide substrate [Val-Ser-Gln-Asn-(betanapthyl)Ala-Pro-Ile-Val, 0.5 mg/mL at the time the reaction is initiated] were in 50 mM Na acetate, pH 5.5, at 30°C for 1 hour. Various concentrations of inhibitor in 1.0 ul DMAO were added to 25 ul of the peptide solution in water. The reaction is initiated by the addition of 15 ul of 0.33 nM protease (0.11 ng) in a solution of 0.133 M Na acetate pH 5.5 and 0.26% bovine serum albumin. The reaction was quenched with 160 ul of 5% phosphoric acid. Products of the reaction were separated by HPLC (VYDAC wide pore 5 cm C-18 reverse phase, acetonitrile gradient, 0.1% phosphoric acid). The extent of inhibition of the reaction was determined from the peak heights of the products.

For the compound `O=C(N[C@H]1c2ccccc2C[C@H]1O)[C@H](Cc1ccccc1)CC(O)C[C@@H](Cc1ccccc1)C(=O)N[C@H]1c2ccccc2C[C@H]1O` [Example 1, N,N-bis-(2(R)-hydroxy-1(S)-indanyl)-2, 6(R,R)diphenylmethyl-4-hydroxy-1,7-heptanediamide], the IC50 was around 0.7 nM.

Values taken from EP0480714A2, “HIV protease inhibitors having symmetrical structure” (MERCK & CO. INC., priority 1990, dated 1992).
